These results are taken from patent EP0059983B1, “Substituted biphenyl compounds for use as a medicament” (THE WELLCOME FOUNDATION LIMITED, priority 1981, dated 1982).

Series [1] relates to hypercholesterolemic male rat. Briefly: Inhibition of dietary induced hypercholesterolemia in male rats (serum lipids). The format is in vivo. Set-up: key to Cholesterol lowering / Triglyceride lowering: In = Inactive at dose tested; A = Activity> clofibrate; M = Activity≤ clofibrate. Conditions: for Cholesterol lowering / Triglyceride lowering: rats, efficacy compared to clofibrate, dose not given; for % change in serum from control HDL: HDL cholesterol; for % change in serum from control HDL / % change in serum from control VLDL & LDL / % change in serum from control Cholesterol / % change in serum from control Triglyceride: male rats, oral; for % change in serum from control VLDL & LDL: VLDL & LDL cholesterol (difference between total and HDL cholesterol); for % change in serum from control Cholesterol / % change in serum from control Triglyceride: twice daily 3 days and once on day 4. The protocol: Hypercholesterolemia was produced in male rats after 3 days in a diet of 0.4% cholesterol and 0.2% sodium cholate. Each group contained 4 rats. Compounds tested were given orally twice daily for 3 days and once on day 4. Control animals received the vehicle, methyl cellulose. The cholesterol-containing diet and compound treatment were started at the same time. Animals were bled before dietary and compound treatment and 3 hr after the last dose of compound on day 4. All bleedings were after a 4 hr fast. Total serum cholesterol, triglyceride and high density lipoprotein (HDL) cholesterol determined by the procedure and test kit supplied by Dow Diagnostics (Trademark of the Dow Chemical Co. Laboratories, Indianapolis, IN). Very low and low density lipoprotein (VLDL & LDL) cholesterol were determined by the difference between total and HDL cholesterol.
By the method of Example 5 various compounds of formula (IA) were assessed for their ability to reduce cholesterol and triglyceride levels in rats. The compounds were compared in efficacy to clofibrate.

Series [2] relates to rats. Briefly: Oral toxicity in rats. Particulars: oral administration to rats at upto 1 g/kg bodyweight. The format is in vivo.

Take `Cc1ccc(-c2ccccc2C(=O)O)cc1` [CH3, 2-(4-Methylphenyl)-benzoic acid]: in series [1], the Cholesterol lowering entry is on record as “M” and the Triglyceride lowering result was “M”.
For the compound `O=C(O)c1ccccc1-c1ccc(Cl)cc1` [Cl, 2-(4-Chlorophenyl)-benzoic acid], in series [1], the Cholesterol lowering entry was “M” and the Triglyceride lowering result is “In”.
For the compound `CCOC(=O)C(C)(C)Oc1ccc(Cl)cc1` [Clofibrate, reference compound], in series [1] (dose 100 mg/kg/day), the “% change in serum from control HDL” value is reported as −21%, the “% change in serum from control VLDL & LDL” value is 0%, the “% change in serum from control Cholesterol” value came out at 0% and the “% change in serum from control Triglyceride” value was −33%. Moreover, in series [1] (dose 200 mg/kg/day), the “% change in serum from control HDL” value is −28%, the “% change in serum from control VLDL & LDL” value is −29%, the “% change in serum from control Cholesterol” value is on record as −28% and the “% change in serum from control Triglyceride” value was −40%. Besides, in series [1] (dose 25 mg/kg/day), the “% change in serum from control Cholesterol” value was 0% and the “% change in serum from control Triglyceride” value amounted to 0%. For the same compound, in series [1] (dose 50 mg/kg/day), the “% change in serum from control Cholesterol” value came out at 0% and the “% change in serum from control Triglyceride” value was −31%.
`CCc1ccc(-c2ccccc2C(=O)O)cc1` [Example C2H5, 2-(4-Ethylphenyl)-benzoic acid]: in series [1], the Cholesterol lowering entry is on record as “A” and the Triglyceride lowering result is on record as “A”.
Take `O=C(O)c1ccccc1-c1ccc(F)cc1` [F, 2-(4-Fluorophenyl)-benzoic acid]: in series [1], the Cholesterol lowering entry is “In” and the Triglyceride lowering entry is on record as “M”.
The like results for `CC(C)c1ccc(-c2ccccc2C(=O)O)cc1` [I C3H7, 2-(4-isoPropylphenyl)-benzoic acid] were, in that order, “A” and “A”.
With `O=C(O)c1ccccc1-c1ccc(C(F)(F)F)cc1` [IA(R=CF3), 2-(4-trifluoromethylphenyl)benzoic acid], in series [1] (dose 25 mg/kg/day), the “% change in serum from control HDL” value is given as −6%, the “% change in serum from control VLDL & LDL” value is recorded as −46%, the “% change in serum from control Cholesterol” value was −40% and the “% change in serum from control Triglyceride” value was −43%. Also, in series [1] (dose 50 mg/kg/day), the “% change in serum from control HDL” value is given as “+10%”, the “% change in serum from control VLDL & LDL” value is recorded as −64%, the “% change in serum from control Cholesterol” value is −56% and the “% change in serum from control Triglyceride” value is −53%. Also, in series [1] (dose 150 mg/kg/day), the “% change in serum from control HDL” value is −15%, the “% change in serum from control VLDL & LDL” value is listed as −52%, the “% change in serum from control Cholesterol” value is −40% and the “% change in serum from control Triglyceride” value was −60%. Besides, in series [1] (dose 100 mg/kg/day), the “% change in serum from control Cholesterol” value is on record as −51% and the “% change in serum from control Triglyceride” value is on record as −57%. Also, in series [1], the Cholesterol lowering entry is recorded as “A” and the Triglyceride lowering result was “A”. Also, the deaths result in series [2] is “no deaths were observed”.
Consider `COc1ccc(-c2ccccc2C(=O)O)cc1` [OCH3, 2-(4-Methoxyphenyl)-benzoic acid], for which, in series [1], the Cholesterol lowering entry is reported as “M” and the Triglyceride lowering result is recorded as “A”.
For `CCCCc1ccc(-c2ccccc2C(=O)O)cc1` [n C4H9, 2-(4-n-butylphenyl)benzoic acid] the same measures were “A” and “A”.
For `CC(C)(C)c1ccc(-c2ccccc2C(=O)O)cc1` [t C4H9, 2-(4-t-Butylphenyl)-benzoic acid] the same measures were “M” and “A”.
